For two compounds, AC50 results are on record in ChEMBL document CHEMBL5291721, “A preclinical secondary pharmacology resource illuminates target-adverse drug reaction associations of marketed drugs” (Nat Commun, 2023).

The target in one test is T1, Estrogen receptor (Homo sapiens, UniProt P03372).
T1 sequence (P03372 whole entry): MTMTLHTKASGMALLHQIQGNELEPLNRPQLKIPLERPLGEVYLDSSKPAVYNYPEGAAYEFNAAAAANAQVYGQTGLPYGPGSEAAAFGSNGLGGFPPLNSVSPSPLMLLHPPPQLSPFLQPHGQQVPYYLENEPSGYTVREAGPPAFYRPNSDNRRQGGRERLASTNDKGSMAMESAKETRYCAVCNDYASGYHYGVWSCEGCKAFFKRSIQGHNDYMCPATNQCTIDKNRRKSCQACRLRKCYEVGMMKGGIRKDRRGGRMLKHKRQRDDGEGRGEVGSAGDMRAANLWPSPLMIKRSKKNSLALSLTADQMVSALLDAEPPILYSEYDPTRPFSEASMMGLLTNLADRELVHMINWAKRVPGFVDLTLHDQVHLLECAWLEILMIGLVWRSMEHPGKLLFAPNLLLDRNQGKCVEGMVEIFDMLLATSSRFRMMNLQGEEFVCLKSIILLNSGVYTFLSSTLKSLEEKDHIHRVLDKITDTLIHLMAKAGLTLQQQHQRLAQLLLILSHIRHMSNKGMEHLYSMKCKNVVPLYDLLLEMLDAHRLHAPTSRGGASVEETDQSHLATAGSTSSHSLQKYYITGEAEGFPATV
It is filed as functional.

In a further test the target is T2, Glucocorticoid receptor (Homo sapiens, UniProt P04150).
T2 sequence (P04150 whole entry): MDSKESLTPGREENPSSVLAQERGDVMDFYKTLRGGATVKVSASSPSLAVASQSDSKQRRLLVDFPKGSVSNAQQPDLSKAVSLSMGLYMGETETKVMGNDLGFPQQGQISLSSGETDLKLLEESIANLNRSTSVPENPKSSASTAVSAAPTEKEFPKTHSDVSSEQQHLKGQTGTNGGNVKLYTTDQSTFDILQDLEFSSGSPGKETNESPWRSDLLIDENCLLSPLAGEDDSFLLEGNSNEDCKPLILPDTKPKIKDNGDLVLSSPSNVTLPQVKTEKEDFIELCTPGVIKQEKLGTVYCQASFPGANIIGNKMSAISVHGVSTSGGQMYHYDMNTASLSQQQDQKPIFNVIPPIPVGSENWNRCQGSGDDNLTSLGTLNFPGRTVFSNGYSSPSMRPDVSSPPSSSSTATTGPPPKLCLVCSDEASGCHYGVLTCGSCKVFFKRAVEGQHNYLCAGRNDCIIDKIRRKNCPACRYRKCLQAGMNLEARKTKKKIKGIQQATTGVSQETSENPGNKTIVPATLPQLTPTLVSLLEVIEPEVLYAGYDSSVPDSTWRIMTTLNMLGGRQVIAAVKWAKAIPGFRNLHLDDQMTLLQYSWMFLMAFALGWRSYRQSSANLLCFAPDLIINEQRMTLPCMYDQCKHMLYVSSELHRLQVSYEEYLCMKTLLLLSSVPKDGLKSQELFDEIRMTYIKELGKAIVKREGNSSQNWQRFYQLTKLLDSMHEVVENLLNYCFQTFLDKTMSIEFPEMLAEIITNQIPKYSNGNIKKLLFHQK
It is filed as functional.

Test [1] addresses T3, Muscarinic acetylcholine receptor M2 (Homo sapiens, UniProt P08172).
T3 sequence (P08172 whole entry): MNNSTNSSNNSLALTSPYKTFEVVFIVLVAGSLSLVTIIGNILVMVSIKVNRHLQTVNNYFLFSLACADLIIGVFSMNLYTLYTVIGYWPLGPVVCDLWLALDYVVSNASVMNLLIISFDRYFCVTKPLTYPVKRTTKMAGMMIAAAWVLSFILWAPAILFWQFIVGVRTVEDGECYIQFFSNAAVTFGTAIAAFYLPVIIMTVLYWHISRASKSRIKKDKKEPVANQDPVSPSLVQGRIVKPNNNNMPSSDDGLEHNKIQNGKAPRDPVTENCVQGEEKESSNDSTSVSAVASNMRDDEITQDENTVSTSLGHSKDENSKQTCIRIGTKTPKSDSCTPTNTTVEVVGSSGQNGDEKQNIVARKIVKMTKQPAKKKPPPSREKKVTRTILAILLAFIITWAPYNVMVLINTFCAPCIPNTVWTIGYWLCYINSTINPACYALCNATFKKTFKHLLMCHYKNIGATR
Further: assay procedure not described here.

As a reminder, the AC50 is the midpoint of the concentration-response curve, whichever way the signal moves. Regarding `COc1cccc2c1C(=O)c1c(O)c3c(c(O)c1C2=O)C[C@@](O)(C(=O)CO)C[C@@H]3O[C@H]1C[C@H](N)[C@H](O)[C@H](C)O1` [DOXORUBICIN], the AC50 was above 3000 nM at Estrogen receptor and above 10000 nM on Glucocorticoid receptor.

With `CN1CCCC(CC2c3ccccc3Sc3ccccc32)C1` (stereo not drawn) [METHIXENE], the AC50 in test [1] was determined as 5.3 nM.
